Assay results published in PMC11952846, “The sterol-regulating human ARV1 binds cholesterol and phospholipids through its conserved ARV1 homology domain” (The Journal of Biological Chemistry, 2025).

Experiments:
[1] = target: T1, GST-ARV1-N98 K54/K59A (Homo sapiens, UniProt Q9H2C2, K54A/K59A); assay: Liposome binding assay, site-directed mutant; conditions: PC:PL, sulfatide liposomes
T1 construct: Expresses amino-terminal 98 amino acids of ARV1; made in house; host or cells: E. coli BL21 (pGEX-4T1)

[2] = target: T2, GST-ARV1-N98 E70A (Homo sapiens, UniProt Q9H2C2, E70A); assay: Liposome binding assay, site-directed mutant; conditions: PE liposomes
T2 construct: Expresses amino-terminal 98 amino acids of ARV1; made in house; host or cells: E. coli BL21 (pGEX-4T1)
T2 sequence (Q9H2C2 1-98 E70A): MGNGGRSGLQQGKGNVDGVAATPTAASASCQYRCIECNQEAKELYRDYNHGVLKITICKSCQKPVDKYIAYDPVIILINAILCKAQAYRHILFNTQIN

T1 sequence (Q9H2C2 1-98 K54A/K59A): as the sequence (Q9H2C2 1-98 E70A) above, with K54A, K59A, A70E counted along it

Molecule	liposome binding [1]	liposome binding [2]
CCCCCCCC/C=C\CCCCCCCC(=O)OC[C@H](COP(=O)(O)OCC(O)CO)OC(=O)CCCCCCC/C=C\CCCCCCCC (some centres unmarked) [PG, phosphatidylglycerol]	unable to bind	–
phosphatidylethanolamine [PE]	–	showed binding
